# Results as given in patent US8669360B2, “Methods of converting amorphous drug substance into crystalline form” (Boston Scientific Scimed, Inc., priority 2011, dated 2014).
# Columns and labels:
# [1] = Approximate solubility of amorphous everolimus in solvents; type: physicochemical; conditions: room temperature
# Procedure: Approximate solubilities of amorphous everolimus were determined by adding the drug gradually with stirring at room temperature to a fixed volume of the solvent until solid remained visible.
# [2] = Comparative aqueous solubility of amorphous and crystalline everolimus (FIG. 3); type: physicochemical; conditions: aqueous solubility at body temperature (37° C.)
# Source text: FIG. 3 is a graph showing the relative water solubilities of the amorphous and crystalline forms of everolimus.
Amorphous Everolimus Solubilities ([1]; solvent ACN/water 3:2 v/v) [mg/mL],Amorphous Everolimus Solubilities ([1]; solvent ACN) [mg/mL],Amorphous Everolimus Solubilities ([1]; solvent Acetone) [mg/mL],Amorphous Everolimus Solubilities ([1]; solvent DCM) [mg/mL],Amorphous Everolimus Solubilities ([1]; solvent DMF/DCM w/w) [mg/mL],Amorphous Everolimus Solubilities ([1]; solvent DMF/EtOAc w/w) [mg/mL],Amorphous Everolimus Solubilities ([1]; solvent DMF/THF w/w) [mg/mL],Amorphous Everolimus Solubilities ([1]; solvent DMF) [mg/mL],Amorphous Everolimus Solubilities ([1]; solvent EtOH) [mg/mL],Amorphous Everolimus Solubilities ([1]; solvent IPA) [mg/mL],Amorphous Everolimus Solubilities ([1]; solvent MEK) [mg/mL],Amorphous Everolimus Solubilities ([1]; solvent MTBE) [mg/mL],Amorphous Everolimus Solubilities ([1]; solvent THF) [mg/mL],Amorphous Everolimus Solubilities ([1]; solvent ethyl acetate) [mg/mL],Amorphous Everolimus Solubilities ([1]; solvent m-xylene) [mg/mL],Amorphous Everolimus Solubilities ([1]; solvent n-heptane) [mg/mL],Amorphous Everolimus Solubilities ([1]; solvent p-dioxane) [mg/mL],Amorphous Everolimus Solubilities ([1]; solvent water) [mg/mL],"Solubility of crystalline everolimus, times lower than that of amorphous everolimus [2]",Structure (SMILES)
~52,~100,~100,~46,~142,~119,~112,~49,~100,~15,~70,~62,~67,~100,~76,~0.5,~58,~0.1,,"CO[C@H]1C[C@@H]2CC[C@@H](C)[C@@](O)(O2)C(=O)C(=O)N2CCCC[C@H]2C(=O)O[C@H]([C@H](C)C[C@@H]2CC[C@@H](OCCO)[C@H](OC)C2)CC(=O)[C@H](C)/C=C(\C)[C@@H](O)[C@@H](OC)C(=O)[C@H](C)C[C@H](C)/C=C/C=C/C=C/1C [Amorphous Everolimus, 40-O-(2-Hydroxyethyl)rapamycin]"
,,,,,,,,,,,,,,,,,,about 25 times,"CO[C@H]1C[C@@H]2CC[C@@H](C)[C@@](O)(O2)C(=O)C(=O)N2CCCC[C@H]2C(=O)O[C@H]([C@H](C)C[C@@H]2CC[C@@H](OCCO)[C@H](OC)C2)CC(=O)[C@H](C)/C=C(\C)[C@@H](O)[C@@H](OC)C(=O)[C@H](C)C[C@H](C)/C=C/C=C/C=C/1C [crystalline everolimus, 40-O-(2-Hydroxyethyl)rapamycin]"
